Results from US20260078099A1, “COMPOUND, PREPARATION METHOD THEREOF, AND LIPID NANOPARTICLE AND PHARMACEUTICAL COMPOSITION” (priority 2023, published 2026).

Tests used:
[1] = LNP size and PDI by dynamic light scattering; assay type: physicochemical; conditions: for PDI / Size (nm): mRNA LNP, cationic lipid/DSPC/cholesterol/PEG-lipid 50:10:38.5:1.5
[2] = LNP encapsulation efficiency (Quant-it Ribogreen); assay type: physicochemical; conditions: mRNA LNP, cationic lipid/DSPC/cholesterol/PEG-lipid 50:10:38.5:1.5
LNP zeta potential = assay type: physicochemical; conditions: mRNA LNP
mice = test: Bioluminescent study, intramuscular injection of F-luc mRNA LNPs; assay type: in vivo; conditions: F-luc luminescence flux normalized to MC3; 0.25 mg/kg intramuscular, mice n=3, 6-hour time point
Method in brief: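 Mice (n=3) received LNP-formulated F-luc mRNA at 0.25 mg/kg intramuscularly. Bioluminescence was read 6 h after dosing. Test LNPs were made with an MC3 formulation, and PBS served as control in some groups.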

Compound | PDI [1] | Size (nm) [1] [nm] | Encapsulation efficiency (%) [2] [%] | Zeta potential (mV) (LNP zeta potential) | Relative Total flux (mice) | particle sizes by dynamic light scattering (FIG. 22) ([1]; mRNA-loaded LNPs)
CCCCCCCC(C(=O)NCCCCCCCCCC(=O)OC(CCCCCC)CCCCCC)N(CCn1ccnc1)C(=O)CCCCCCCCCC(=O)OC(CCCCCC)CCCCCC (stereo not drawn) [Compound B18] | 0.187 | 80.68 | 81.99 | 4.79 | A (A: ≥2) | –
CCCCCCCCC(C(=O)NCCCCCCCCCC(=O)OCCCCCC)N(CCCN1CCCC1)C(=O)CCCCCCCCCC(=O)OC(CCCCCC)CCCCCC (stereo not drawn) [Compound A5] | 0.13 | 60.62 | 92.48 | −17.73 | D (D: <0.1.) | –
CCCCCCC(CCCCCC)OC(=O)CCCCCCCCCNC(=O)C(CCCCCCCCCC(=O)OC(CCCCCC)CCCCCC)N(CCCN1CCN(C)CC1)C(=O)CCCN1CCN(C)CC1 (stereo not drawn) [Compound E9] | 0.593 | 91.81 | 82.13 | −15.91 | C (C: ≥0.1 and <1) | –
CCCCCCC(CCCCCC)OC(=O)CCCCCCCCCNC(=O)C(CCCCCCCCCC(=O)OC(CCCCCC)CCCCCC)N(CCCN(CCO)CCO)C(=O)CCCN(CC)CC (stereo not drawn) [Compound E4] | 0.205 | 95.73 | 95.18 | 5.03 | A (A: ≥2) | –
CCCCCCCCNC(=O)C(CCCC)N(CCCN(C)C)C(=O)CCCCCCC(=O)OC(CCCCCCCC)CCCCCCCC (stereo not drawn) [Compound A27] | 0.11 | 121.37 | 95.33 | −3.43 | A (A: ≥2) | –
CCCCCCCCNC(=O)C(CCCCCCCC)N(CCCN(CC)CC)C(=O)CCCCCCC(=O)OC(CCCCCCCC)CCCCCCCC (stereo not drawn) [Compound A33] | 0.10 | 79.84 | 94.69 | 0.51 | A (A: ≥2) | –
CCCCCCCCCCOCCCCCCCC(=O)N(CCCN(C)C)C(CCCCCCCC)C(=O)NCCCCCC(=O)OC(CCCCCCCC)CCCCCCCC (stereo not drawn) [Compound A41] | 0.66 | 264.60 | 54.08 | −10.28 | C (C: ≥0.1 and <1) | –
CCCCCCCC(C(=O)NCCCCCCCCCC(=O)OC(CCCCCC)CCCCCC)N(CCN(CO)CO)C(=O)CCCCCCCCCC(=O)OC(CCCCCC)CCCCCC (stereo not drawn) [Compound B7] | 0.116 | 58.86 | 85.36 | −2.80 | A (A: ≥2) | –
CCCCCC/C=C\CCCCCCCC(C(=O)NCCCCCCCC/C=C\CCCCCCCC)N(CCCN(C)C)C(=O)CCCCCCC/C=C\CCCCCCCC (stereo not drawn) [Compound C8] | 0.24 | 78.44 | 82.17 | −0.77 | A (A: ≥2) | –
CCCCCCCC(C(=O)NCCCCCCCCCC(=O)OC(CCCCCC)CCCCCC)N(CCCN(CCO)C1CCCCC1)C(=O)CCCCCCCCCC(=O)OC(CCCCCC)CCCCCC (stereo not drawn) [Compound B14] | 0.13 | 76.67 | 89.01 | 2.73 | A (A: ≥2) | –
CCCCCCCC(C(=O)NCCCCCCCCCC(=O)OC(CCCCCC)CCCCCC)N(CCCN(CCO)CCO)C(=O)CCCCCCCCCC(=O)OC(CCCCCC)CCCCCC (stereo not drawn) [Compound B2] | 0.15 | 104.5 | 85.90 | −6.41 | A (A: ≥2) | –
CCCCCCCC(C(=O)NCCCCCCCCCC(=O)OC(CCCCCC)CCCCCC)N(CCN1CCN(CCO)CC1)C(=O)CCCCCCCCCC(=O)OC(CCCCCC)CCCCCC (stereo not drawn) [Compound B16] | 0.593 | 57.19 | 94.62 | 5.42 | A (A: ≥2) | –
CCCCCCCCCCCOC(=O)CCCCCN(CCO)CCCCCCCC(=O)OC(CCCCCCCC)CCCCCCCC [SM-102, reference compound] | 0.058 | 89.08 | 96.25 | −1.23 | A (A: ≥2) | approximately 100 nm
CCCCCCCCC(C(=O)NCCCCCCCCCC(=O)OCC1CC=CCC1)N(CCCN1CCCC1)C(=O)CCCCCCCCCC(=O)OC(CCCCCC)CCCCCC (stereo not drawn) [Compound A10] | 0.415 | 61.16 | 54.08 | −3.45 | A (A: ≥2) | –
CCCCCCCC(C(=O)NCCCCCCCCCC(=O)OC(CCCCCC)CCCCCC)N(CCCNc1c(NC)c(=O)c1=O)C(=O)CCCCCCCCCC(=O)OC(CCCCCC)CCCCCC (stereo not drawn) [Compound B22] | 0.165 | 141.8 | 95.03 | −3.48 | B (B: ≥1 and <2) | –
CCCCCCCC(C(=O)NCCCCCCCCCC(=O)OC(CCCCCC)CCCCCC)N(CCCN(CCO)CCO)C(=O)CCCCCCCCCC(=O)OCC1CC=CCC1 (stereo not drawn) [Compound B5] | 0.163 | 55.64 | 95.00 | 6.08 | A (A: ≥2) | –
CCCCC/C=C\C/C=C\CCCCCCCCNC(=O)C(CCCCCCCC)N(CCCCCCCC/C=C\C/C=C\CCCCC)C(=O)CCCN1CCN(C)CC1 (stereo not drawn) [Compound C5] | 0.198 | 64.58 | 91.26 | −14.75 | D (D: <0.1.) | –
CCCCCCCC(C(=O)NCCCCCCCCCC(=O)OC(CCCCCC)CCCCCC)N(CCCN1CCN(CCO)CC1)C(=O)CCCCCCCCCC(=O)OC(CCCCCC)CCCCCC (stereo not drawn) [Compound B17] | 0.185 | 64.2 | 92.99 | 14.20 | A (A: ≥2) | –
CCCCCCCCC(C(=O)NCCCCCCCCCC(=O)OCCCCCC)N(CCCN(C)C)C(=O)CCCCCCCCCC(=O)OC(CCCCCC)CCCCCC (stereo not drawn) [Compound A15] | 0.251 | 113.2 | 93.95 | 4.75 | A (A: ≥2) | –
CCCCCCC(CCCCCC)OC(=O)CCCCCCCCCNC(=O)C(CCCCCCCCCC(=O)OC(CCCCCC)CCCCCC)N(CCN1CCN(CCO)CC1)C(=O)CCN1CCN(CCO)CC1 (stereo not drawn) [Compound E10] | 0.185 | 104.5 | 69.71 | −16.71 | C (C: ≥0.1 and <1) | –
CCCCCCCC(C(=O)NCCCCCCCCCC(=O)OC(CCCCCC)CCCCCC)N(CCCN(CCO)C1CCC1)C(=O)CCCCCCCCCC(=O)OC(CCCCCC)CCCCCC (stereo not drawn) [Compound B10] | 0.166 | 66.9 | 46.91 | 2.18 | A (A: ≥2) | –
CCCCCCCCC(C(=O)NCCCCCCCCCC(=O)OCC12CC3CC(CC(C3)C1)C2)N(CCCN(C)C)C(=O)CCCCCCCCCC(=O)OC(CCCCCC)CCCCCC (stereo not drawn) [Compound A18] | 0.136 | 78.14 | 87.17 | −15.20 | D (D: <0.1.) | –
CCCCCCCCCCCNC(=O)C(CCCCCCCC)N(CCN(C)CCN(C(=O)CCCCCCCCCC(=O)OC(CCCCCC)CCCCCC)C(CCCCCCCC)C(=O)NCCCCCCCCCC)C(=O)CCCCCCCCCC(=O)OC(CCCCCC)CCCCCC (stereo not drawn) [Compound D4] | 0.163 | 113.2 | 43.24 | −5.91 | C (C: ≥0.1 and <1) | –
CCCCCCCCC(C(=O)NCCCCCCCCCC(=O)OC(CCCCCC)CCCCCC)N(CCCN(C)C)C(=O)CCCCCCCCCC(=O)OC(CCCCCC)CCCCCC (stereo not drawn) [Compound A11] | 0.075 | 225.6 | 71.39 | −2.89 | D (D: <0.1.) | –
CCCCCCC(CCCCCC)OC(=O)CCCCCCCCCNC(=O)C(CCCCCCCCCC(=O)OC(CCCCCC)CCCCCC)N(CCCN1CCN(CO)CC1)C(=O)CCCN1CCN(CCO)CC1 (stereo not drawn) [Compound E11] | 0.158 | 85.75 | 93.77 | 0.85 | B (B: ≥1 and <2) | –
CCCCCCCC(C(=O)NCCCCCCCCCC(=O)OC(CCCCCC)CCCCCC)N(CCNCCO)C(=O)CCCCCCCCCC(=O)OC(CCCCCC)CCCCCC (stereo not drawn) [Compound B6] | 0.183 | 61.81 | 75.47 | −0.39 | A (A: ≥2) | –
CCCCCCCC(C(=O)NCCCCCCCCCC(=O)OC(CCCCCC)CCCCCC)N(CCOC(=O)CCN1CCCC1)C(=O)CCCCCCCCCC(=O)OC(CCCCCC)CCCCCC (stereo not drawn) [Compound B25] | 0.095 | 64.2 | 69.52 | −3.38 | A (A: ≥2) | –
CCCCCCC(CCCCCC)OC(=O)CCCCCCCCCNC(=O)C(CCCCCCCCCC(=O)OC(CCCCCC)CCCCCC)N(CCCN(CCO)CCO)C(=O)CCCN(C)C (stereo not drawn) [Compound E3] | 0.166 | 93.07 | 89.28 | −2.06 | C (C: ≥0.1 and <1) | –
